Measured values as given in patent US10745393B2, “Small molecular probes, processes and use thereof” (JAWAHARLAL NEHRU CENTRE FOR ADVANCED SCIENTIFIC RESEARCH, priority 2014, dated 2020).

Assays:
(AT)20 = experiment: Thermal denaturation (UV-melting) of dsDNA with probe TC; type: binding
(GC)10 = experiment: as above; type: binding
(D2)mix = experiment: as above; type: binding
HeLa S3 cells = experiment: Confocal fluorescence nuclear staining, co-staining with Hoechst 33258; type: cell-based; settings: TC 5 μM
HEK293 cells = experiment: DNase I and RNase digestion studies; type: cell-based; settings: 2 hours
Procedure: DNase I is known to degrade nuclear DNA while RNase degrades RNA in the cytoplasm by catalyzing phosphodiester bonds cleavage. HEK293 cells are fixed with chilled methanol for about 1 minute at room temperature and permeabilized with 0.1% Triton X-100 in PBS for about 2×5 minutes. After rinsing with PBS twice, for one set of experiments, cells are treated with probe TC (5 μM) for about 15 min at room temperature in three adjacent wells. A total of about 200 μL PBS (as control experiment), about 100 μg/mL DNase I (Sigma), or about 30 μg/ml DNase-Free RNase (GE) is added into the three adjacent wells and incubated at about 37° C. for about 2 hours. For another set of experiments, instead of treating with probe TC, cells are only treated with about 200 μL PBS (as control experiment), about 100 μg/ml DNase I (Sigma), or about 30 μg/mL DNase-Free RNase (GE) by adding into the three adjacent wells and incubating at about 37° C. for about 2 hours. […] After two more washes in PBS with 0.1% Triton X-100, the cover slips are washed in PBS, rinsed in ddH2O and briefly dipped in 100% ethanol. After a quick dry, cover slips are mounted with 70% glycerol. Images are captured using a Carl Zeiss Laser Scanning Microscope (LSM510 META) using an equal exposure time for control, DNase I, and RNase experiments. Experiments are done in duplicate.

[1] = Absorption, emission and quantum yield of probes without Aβ42 aggregates; type: physicochemical

## CCN(CC)c1ccc2cc(/C=C/c3sc4ccccc4[n+]3C)c(=O)oc2c1 [TC, (E)-3-(2-(N-methyl-benzo[d]thiazol-2-yl)vinyl)-7-(diethylamino)-2H-chromen-2-one]
(AT)20
  Tm(DNA + TC): 49.7 °C
(GC)10
  Tm(DNA + TC): 60.3 °C
(D2)mix
  Tm(DNA + TC): 73.5 °C
(D2)mix; TC bound vs unbound
  ΔTm: 1.6 °C
HeLa S3 cells
  nuclear staining of HeLa S3 cells: selective targeting to the cell nucleus
HEK293 cells; DNase I about 100 μg/mL
  fluorescence nuclear staining after DNase I digestion: almost completely diminished
HEK293 cells; RNase about 30 μg/mL
  fluorescence nuclear staining after RNase digestion: does not affect the fluorescence staining
[1]; Experiment
  absorption maximum TC/chloroform: 561 nm
  absorption maximum TC/water: 537 nm
[1]; PBS buffer (10 mM, pH 7.4)
  absorption maximum in absence of Aβ42 aggregates: 537 nm
[1]; PBS buffer, very weak fluorescence
  emission maximum in absence of Aβ42 aggregates: 638 nm
